Results reported in US20090076029A1 (Palatin Technologies, Inc., priority 2007, published 2009).
“And” between values parts separate entries of the source, which are not always exact repeats. Equal values may be shown once. Read-outs that look alike come from different tables or passages of the source.

Columns and labels:
MC1-R [1] = tested on: T1, MC1-R; experiment: cAMP functional assay, B-16 mouse melanoma cells expressing MC1-R; assay type: cell-based; conditions: cAMP assay at 1 μM
T1 construct: from B-16 mouse melanoma cells (containing MC1-R); endogenous in cells; host or cells: B-16 mouse melanoma cells
Experimental: (§1) General method for EC50 determination in functional activity assay. Functional evaluation of compounds at melanocortin receptors was performed by measuring the accumulation of intracellular cAMP in HEK-293 cells expressing hMC3-R, hMC4-R or hMC5-R, and in B-16 mouse melanoma cells expressing MC1-R. Cells suspended in Earle's Balanced Salt Solution containing 10 mM HEPES (pH 7.5), 5 mM MgCl2, 1 mM glutamine, 0.1% albumin and 0.6 mM 3-isobutyl-1-methyl-xanthine, a phosphodiesterase inhibitor, were plated in 96 well plates at a density of 0.5×10^5 cells per well. Cells were incubated with the test compounds in the presence or absence of α-MSH for 1 hour at 37° C. cAMP levels in the cell lysates were measured using an EIA kit (Amersham). Data analysis and EC50 values were determined using nonlinear regression analysis with Prism Graph-Pad software.
(§2) Functional status. The agonist/antagonist status with respect to MC1-R, MC-3R, MC4-R and MC5-R of certain compounds of the invention was determined.

hMC4-R [2] = target: T2, hMC4-R; assay type: binding, human; conditions: for Inhibition at 1 μM (AgRP) MC4-R: 1 μM compound
T2 construct: expressed in transfected cells; host or cells: HEK-293
Experimental: Competitive binding assay using [I^125]-AgRP (83-132). Competitive binding studies using [I^125]-AgRP (83-132) were carried out on membranes isolated from cells expressing hMC4-R. The assay was performed in 96 well GF/B Millipore multiscreen filtration plates (MAFB NOB10) pre-coated with 0.5% bovine serum albumin (Fraction V). The assay mixture contained 25 mM HEPES buffer (pH 7.5) with 100 mM NaCl, 2 mM CaCl2, 2 mM MgCl2, 0.3 mM 1,10-phenanthroline, 0.5% bovine serum albumin, cell membranes, radioligand [I^125]-AgRP (83-132) (NEN), and increasing concentrations of compounds in a total volume of 200 μL. Binding was measured at radioligand concentrations of 0.2 nM. After incubating for 1 hour at 37° C., the reaction mixture was filtered and washed with an assay buffer containing 500 mM NaCl. The dried discs were punched out from the plate and counted on a gamma counter. Care was taken to limit the specific binding of the ligand to an amount not exceeding 10% of the counts added to the reaction mixture. Data were analyzed using the Prism Graph-Pad curve fitting software.

hMC4-R [3] = tested on: T2, hMC4-R; experiment: cAMP functional assay in HEK-293 cells expressing MC4-R (agonist, neutral antagonist/Schild); assay type: cell-based, human; conditions: for intrinsic activity at MC4-R: NDP-α-MSH maximal stimulation = 1.0; for functional status at MC4-R: mostly at 1 μM
Experimental: as §1, §2
Assay for agonist. Evaluation of the molecules to elicit a functional response in HEK-293 cells expressing MC4-R was accomplished by measuring the accumulation of intracellular cAMP following treatment. Confluent HEK-293 cells expressing MC4-R were detached by enzyme free cell suspension buffer. Cells were suspended in Earle's Balanced Salt Solution containing 10 mM HEPES (pH 7.5), 1 mM MgCl2, 1 mM glutamine, 0.5% albumin and 0.3 mM 3-isobutyl-1-methyl-xanthine (IBMX), a phosphodiesterase inhibitor. The cells were plated in 96 well plates at a density of 0.5×10^5 cells per well and pre-incubated for 30 minutes. The cells were then challenged with the test compounds dissolved in DMSO at a concentration range of 0.05-5000 nM in a total assay volume of 200 μL for 1 hour at 37° C. The concentration of DMSO was always held at 1% in the assay mixture. NDP-α-MSH was used as the reference agonist. At the end of the incubation period the cells were disrupted by the addition of 50 μL of lysis buffer from a cAMP EIA kit (Amersham). Complete rupture of the cells was obtained by pipetting the cells multiple times. cAMP levels in the cell lysates were measured after appropriate dilution using the EIA kit (Amersham) method. Data analysis and EC50 values were determined by using nonlinear regression analysis with Prism Graph-Pad software. […] FIG. 1 illustrates typical results, showing the stimulation of cAMP using the compound of Example 11 in HEK-293/MC4-R cells with comparison to NDP-α-MSH.
Assay for Neutral Antagonist. Compounds with a high affinity for binding to MC4-R membranes but with less potency in terms of cAMP accumulation (EC50>1000 nM) and low response ratio (<0.1) were analyzed for their ability to antagonize the stimulatory effect of the agonist NDP-α-MSH. These studies were carried out in HEK-293 cells expressing MC4-R. Cells were incubated with the compounds in the presence of the agonist NDP-α-MSH and the extent of antagonism was measured by the decrease in intracellular cAMP concentrations. Screening the compounds for antagonist activity was performed at a single concentration of NDP-α-MSH (1.0 nM) over a compound concentration range of 0.5-5000 nM.
Experimental details were similar to the analysis for agonistic activity described above. Briefly, cells were pre-incubated for 30 minutes with the test compounds at concentrations between 0.5 nM and 5000 nM. The cells were then stimulated with NDP-α-MSH at a concentration of 1 nM for 1 hour. For Schild's analysis, the interactions were studied using at least 3 concentrations of the compounds, separated by a log unit, over a full range of the agonist (0.005-5000 nM). cAMP levels were measured in the cell lysates after appropriate dilution. Nonlinear regression analysis with Prism Graph-Pad software was used for Schild analysis and to obtain EC50 values. pA2 values were derived from the Schild plot of the data.

hMC4-R [4] = tested on: T2, hMC4-R; experiment: Competitive inhibition assay using [I125]-NDP-α-MSH, hMC4-R membranes; assay type: binding, human; conditions: for Inhibition at 1 μM (NDP-α-MSH) MC4-R: 1 μM compound; for attenuation of binding of α-MSH and AgRP to MC4-R: both ligands (NDP-α-MSH and AgRP), summary
Experimental: (§3) Competitive inhibition assay using [1125]-NDP-α-MSH. A competitive inhibition binding assay was conducted using membranes prepared from HEK-293 cells transfected to express hMC3-R, hMC4-R or hMC5-R, and from B-16 mouse melanoma cells (containing MC1-R) using 0.2 to 0.4 nM [I^125]-NDP-α-MSH (New England Nuclear) in 50 mM HEPES buffer containing 1 mM MgCl2, 2 mM CaCl2, and 5 mM KCl, at pH 7.2. In certain experiments, HEK-293 cells transfected to express hMC1-R were also employed. The assay tube also contained a chosen concentration of the test compound of this invention, typically a 1 μM concentration, for determining inhibition of the binding of [^1125]-NDP-α-MSH to its receptor. Non-specific binding was measured by inhibition of binding of [I^125]-NDP-α-MSH in the assay with the presence of 1 μM α-MSH.
(§4) The assay mixture was incubated for 90 minutes at room temperature, then filtered and the membranes washed three times with ice cold buffer. The filter was dried and counted in a gamma counter for remaining radioactivity bound to the membranes. 100% specific binding was defined as the difference in radioactivity (cpm) bound to cell membranes in the absence and presence of 1 μM α-MSH. The cpm obtained in presence of test compounds were normalized with respect to 100% specific binding to determine the percent inhibition of [125]-NDP-α-MSH binding. Each assay was conducted in triplicate and the actual mean values are described, with results less than 0% reported as 0%.

hMC3-R [5] = target: T3, hMC3-R; experiment: Competitive inhibition assay using [I125]-NDP-α-MSH, hMC3-R membranes; assay type: binding, human; conditions: for Ki: read-out: Ki (nM) (NDP-α-MSH) MC3-R
T3 construct: expressed in transfected cells; host or cells: HEK-293
Experimental: as §3, §4

MC1-R [6] = target: T4, MC1-R; experiment: Competitive inhibition assay using [I125]-NDP-α-MSH, MC1-R membranes; assay type: binding, mouse; conditions: for Inhibition at 1 μM (NDP-α-MSH) MC1-R: 1 μM compound
T4 construct: other: 1 μM compound
Experimental: as §3, §4

hMC5-R [7] = tested on: T5, hMC5-R; experiment: cAMP functional assay, HEK-293 cells expressing hMC5-R; assay type: cell-based, human; conditions: cAMP assay at 1 μM
T5 construct: expressed in transfected cells; host or cells: HEK-293
Experimental: as §1, §2

hMC5-R [8] = target: T5, hMC5-R; experiment: Competitive inhibition assay using [I125]-NDP-α-MSH, hMC5-R membranes; assay type: binding, human; conditions: for Ki: read-out: Ki (nM) (NDP-α-MSH) MC5-R
Experimental: as §3, §4

hMC3-R [9] = tested on: T3, hMC3-R; experiment: cAMP functional assay, HEK-293 cells expressing hMC3-R; assay type: cell-based, human; conditions: cAMP assay at 1 μM
Experimental: as §1, §2

[10] = MC4-R membranes, Table 1, read-out: Ki (nM) I125-AgRP
[11] = cAMP assay, read-out: EC50 (nM) at MC4-R
[12] = MC4-R membranes, Table 1, read-out: Ki (nM) I125-NPD-α-MSH
[13] = read-out: Ki (nM) (NDP-α-MSH) MC4-R

Molecule	functional status at MC1-R (MC1-R [1])	Ki (hMC4-R [2]; [10]) [nM]	Ki (hMC4-R [2]; read-out: Ki (nM) (AgRP) MC4-R)	functional status (pAg, Ag, Antag, Inactive) (hMC4-R [3]; MC4-R, Table 1)	EC50 (hMC4-R [3]; MC4-R, Table 1, read-out: EC50) [nM]	intrinsic activity at MC4-R (hMC4-R [3])	EC50 (hMC4-R [3]; [11]) [nM]	Inhibition at 1 μM (NDP-α-MSH) MC4-R (hMC4-R [4]) [%]	Ki (hMC4-R [4]; [12]) [nM]	attenuation of binding of α-MSH and AgRP to MC4-R (hMC4-R [4])	Ki (hMC4-R [4]; [13]) [nM]	Ki (hMC3-R [5]) [nM]	Ki (MC1-R [6]) [nM]	Inhibition at 1 μM (NDP-α-MSH) MC1-R (MC1-R [6]) [%]	functional status at MC5-R (hMC5-R [7])	Ki (hMC5-R [8]) [nM]	Inhibition at 1 μM (AgRP) MC4-R (hMC4-R [2]) [%]	functional status at MC4-R (hMC4-R [3]; cAMP assay)	functional status at MC3-R (hMC3-R [9])	further results
N=C(N)NCCC[C@H]1C(=O)N(CCc2c[nH]c3ccccc23)CCN1C(=O)[C@H](N)Cc1ccc(Cl)cc1Cl [Example 2, N-(3-{(S)-1-[(R)-2-Amino-3-(2,4-dichloro-phenyl)-propionyl]-4-[2-(1H-indol-3-yl)-ethyl]-3-oxo-piperazin-2-yl}-propyl)-guanidine]	partial agonist (intrinsic activity between 0.1 (10%) and 0.7 (70%) is classified as a partial agonist)	38	38	pAg (“pAg” means partial agonist)	604	0.3	604	96	15	attenuate the binding of both α-MSH and AgRP to MC4-R	15	533	1410	7	partial agonist (intrinsic activity between 0.1 (10%) and 0.7 (70%) is classified as a partial agonist)	1580	–	–	–	–
CC(C)C[C@H]1CN(C(=O)[C@H](N)Cc2ccc(Cl)cc2Cl)[C@@H](CCCNC(=N)N)CN1CCc1ccc2ccccc2c1 [Example 3, N-{3-[1-[2(R)-Amino-3-(2,4-dichloro-phenyl)-propionyl]-5(S)-isobutyl-4-(2-naphthalen-2-yl-ethyl)-piperazin-2(S)-yl]-propyl}-guanidine]	partial agonist (intrinsic activity between 0.1 (10%) and 0.7 (70%) is classified as a partial agonist)	39	39	Inactive	–	no intrinsic activity	–	95	48	–	48	495	5900	4	partial agonist (intrinsic activity between 0.1 (10%) and 0.7 (70%) is classified as a partial agonist)	698	91	inactive	–	Inhibition at 1 μM (NDP-α-MSH) MC3-R (hMC3-R [5]; 1 μM compound): 16%; Inhibition at 1 μM (NDP-α-MSH) MC5-R (hMC5-R [8]; 1 μM compound): 28%
Cc1ccc(CCN2C[C@H](CCCNC(=N)N)N(C(=O)[C@H](N)Cc3ccc4ccccc4c3)C[C@H]2C)cc1 [Example 5, N-{3-[1-(2(R)-Amino-3-naphthalen-2-yl-propionyl)-5(R)-methyl-4-(2-p-tolyl-ethyl)-piperazin-2(S)-yl]-propyl}-guanidine]	partial agonist (intrinsic activity between 0.1 (10%) and 0.7 (70%) is classified as a partial agonist)	42	42	pAg (“pAg” means partial agonist)	370	0.6	370	–	29	attenuate the binding of both α-MSH and AgRP to MC4-R	29	164	135	32	partial agonist (intrinsic activity between 0.1 (10%) and 0.7 (70%) is classified as a partial agonist)	448	93	–	no intrinsic activity (intrinsic activity below 0.1 (10%) is classified as inactive or having no intrinsic activity)	–
C[C@@H]1CN(C(=O)[C@H](N)Cc2ccc(Cl)cc2Cl)[C@@H](CCCNC(=N)N)CN1CCc1ccc2ccccc2c1 [Example 12, N-{3-[1-[2(R)-Amino-3-(2,4-dichloro-phenyl)-propionyl]-5(R)-methyl-4-(2-naphthalen-2-yl-ethyl)-piperazin-2(S)-yl]-propyl}-guanidine]	inactive	–	–	Antag (“Antag” means antagonist)	–	–	–	99	–	–	–	–	1130	20	inactive	–	–	antagonist	inactive	pA2 value at MC4-R (hMC4-R [3]; Schild plot vs NDP-α-MSH): 7.52 and 7.7
NH2—(CH2)6—C(═O)-Ser(Bzl)-D-Phe(4-Cl)-Arg-Trp-Asp-NH2 [Example 14]	inactive	–	–	pAg (“pAg” means partial agonist)	568	0.5	568	–	–	–	–	180	760	35	inactive	–	–	partial agonist (intrinsic activity between 0.1 (10%) and 0.7 (70%) is classified as a partial agonist)	partial agonist (intrinsic activity between 0.1 (10%) and 0.7 (70%) is classified as a partial agonist)	–
